Test results published in ChEMBL document CHEMBL3392924, “MMV box selection for compounds with potential use in combination with artemisinin using S. cerevisiae”.

test system: Saccharomyces cerevisiae; assay: Assay utilized the disc diffusion method with the observance of a clear zone indicating inhibition of growth. Synthetic complete medium containing 3% glycerol as a carbon source (SCG) was used in each assay. 10 uL of each compound was added to a paper disc which was placed on SCG and SCG+Artemisinin (0.2 uM) plates seeded with 10e6 yeast cells (WC081 strain: Mat a, leu2 delta 0, lys2 delta 0, ura3 delta 0, his3 delta 1, pdr1 delta::HIS3, pdr3 delta::kanMX4, derived from BY4742, regulators of Multi-drug resistance transporters have been deleted to enhance toxicity of compounds). Plates were incubated at 30 degrees C for 5 days and clear zones were measured. Compounds that produced a larger clear zone in the presence of artemisinin was considered to have an additive interaction with artemisinin. Results are reported as diameter of clear zone on SCG+artemisinin plates - diameter of clear zone on SCG plates without artemisinin.; format: organism-based; details: in vivo, 120 h

Compound	Diameter of inhibition zone
CN1CCN(c2ccc(Nc3c4ccccc4nc4ccccc34)cc2)CC1	0 mm
CN(C)CCCNc1c2ccccc2nc2ccccc12	0 mm
CCN1CCCC1CNc1[nH]cnc2c3cc(Cl)ccc3nc1-2 (centres undefined)	0 mm
COc1ccc(-c2c(C)nn3c(N)c(C#N)cnc23)cc1OC	0 mm
CSC1=NC(=Nc2c(C)cccc2C)C2(CCC(C(C)(C)C)CC2)N1c1ccc(Cl)cc1 (centres undefined)	0 mm
C[n+]1c2ccccc2nc2ccc(NCCO)cc21	0 mm
Cc1cc(C)cc(Nc2cc(C)nc3nc(C(F)(F)F)nn23)c1	0 mm
O=C(NCC(c1ccsc1)N1CCCCCC1)c1ccc(C(F)(F)F)cc1 (centres undefined)	0 mm
COc1ccc(-c2cc3c(SCC(=O)Nc4cc(C(F)(F)F)ccc4Cl)nccn3n2)cc1	0 mm
Cc1ccc(-c2cc3c(SCC(=O)Nc4cc(C(F)(F)F)ccc4Cl)nccn3n2)cc1	0 mm
CCN(CC)CCNc1ncnc2c1[nH]c1ccc(Cl)cc12	0 mm
CCOC(=O)c1cnc2ccc(CC)cc2c1O	0 mm
Cc1ccc(-c2cc3c(nn2)-c2ccccc2C3=O)cc1	0 mm
CCN(CC)CCNc1ccnc2cc(Cl)ccc12	0 mm
CCCCCC(=O)N1c2ccccc2N=C2CC(c3ccc(OC)c(OC)c3)CC(O)=C2C1c1ccc(C(F)(F)F)cc1 (centres undefined)	0 mm
Cc1cc(Nc2ccc3ccccc3c2)n2ncnc2n1	7 mm
Cc1cc(NCCN2CCCCC2)c2ccc3ccccc3c2n1	0 mm
COc1ccc(-n2ccnc2SCC(=O)Nc2cc(C)ccc2C)c(OC)c1	0 mm
CCN1CCN(Cc2ccc(NC(=O)c3cc4ccc5cccnc5c4[nH]3)cc2)CC1	0 mm
COc1ccc(-c2nc(NC(=O)CS(=O)(=O)c3ccc(F)cc3)sc2C)cc1	0 mm
O=C(O)C1Cc2c([nH]c3ccccc23)C(c2ccc(Cl)cc2Cl)N1 (centres undefined)	0 mm
Cc1ccc(N2C(=O)C3C(C2=O)C2(c4ccccc4)C(=O)C3(c3ccccc3)C(c3ccccc3)=C2c2ccccc2)cc1 (centres undefined)	0 mm
CCc1c(C)c(=N)c2ccccc2n1C.I	0 mm
COc1cccc(NC(=O)[C@H](C(C)C)n2c(=O)[nH]c3ccccc3c2=O)c1	0 mm
CCOC(=O)c1cn(CC)c2cc(N(C)CCc3ccc(OC)c(OC)c3)c(F)cc2c1=O	0 mm
CCC(c1ccccc1)c1nn2c(-c3cccs3)nnc2s1 (centres undefined)	0 mm
CC(C)(C)c1ccc(O)c(CNC2CCCCC2)c1	0 mm

Compound	Diameter of inhibition zone
O=[N+]([O-])c1ccc(C=NNc2nc3ccccc3[nH]2)cc1	0 mm
CCOc1cc2c(cc1OCC)C(c1cc(OC)c(O)cc1Cl)NCC2 (centres undefined)	0 mm
CC1CN(C(=O)c2sc3ccccc3c2Cl)CC(C)O1 (centres undefined)	0 mm
CN(C)c1ccc(C=Cc2nc(=O)c3ccccc3o2)cc1	0 mm
COc1ccc(C2=C(c3ccc(OC)cc3)C3(c4ccccc4)C(=O)C2(c2ccccc2)C2C(=O)N(c4ccc(C)cc4)C(=O)C23)cc1 (centres undefined)	0 mm
CCOC(=O)c1c(NC(=O)c2ccccc2)sc2c(O)c(CN(CC)CC)ccc12	0 mm
CCOC(=O)C1=C(c2ccccc2)N=c2sc(=Cc3cc(C)n(-c4ccc(F)cc4)c3C)c(=O)n2C1c1cccc(OC)c1OC (centres undefined)	0 mm
CCC1(C)CC(CCNCc2ccccc2O)(c2ccc(C)cc2)CCO1 (centres undefined)	0 mm
OC(CNC1CCCCC1)Cn1c2ccccc2c2ccccc21 (centres undefined)	0 mm
Cc1cc(Nc2ccc(C)c(Cl)c2)n2nc(C(F)(F)F)nc2n1	0 mm
COc1cccc(C=Cc2nc(=O)c3ccccc3o2)c1OC	0 mm
CCCN(CCC)CC(O)COc1ccccc1C(=O)Nc1ccccc1 (centres undefined)	0 mm
Fc1ccc2[nH]c3c(NCCCN4CCOCC4)ncnc3c2c1	0 mm
COc1ccc(C(=O)Nc2nonc2-c2ccc(OC)c(OC)c2)cc1Cl	0 mm
COc1ccc(C=C2SC(=N)N(c3ccccc3OC)C2=O)cc1	0 mm
COc1ccc(NC(=O)C2c3ccccc3C(=O)N(CC(C)C)C2c2cccs2)cc1Cl (centres undefined)	0 mm
CCOC(=O)c1c(C)n(-c2ccc(Cl)cc2)c2ccc(OC(=O)C=Cc3ccccc3)cc12	0 mm
COc1ccc2c(c1)OC(O)(C(F)(F)C(F)(F)F)CC2=O (centres undefined)	0 mm
C=CC12CCN(CC1)C(C(O)c1ccnc3ccc(OC)cc13)C2.Cl (centres undefined)	0 mm
Cc1ccc(-c2cc3nc4c(c(O)n3n2)CCCC4)cc1	0 mm
Cc1cccc(Nc2nc(N)c3ccccc3n2)c1.Cl	0 mm
CCn1c(CN2CCN(Cc3ccccc3)CC2)nc2cc(NC(=O)c3cccs3)ccc21	0 mm
COc1ccccc1CNC(=O)CCn1c(=O)[nH]c2ccccc2c1=O	0 mm
c1ccc2cc3c(Nc4ccc(N5CCOCC5)cc4)ccnc3cc2c1	0 mm
Cc1cc(C)c2c(c1)OCN(Cc1ccccc1Cl)C2	0 mm
COc1cc(OC)c(N(C)C(=O)c2cc3c(s2)-c2ccccc2S(=O)(=O)C3)cc1Cl	0 mm
COc1ccccc1NC1=C(N2CCCCC2)C(=O)c2ccccc2C1=O	0 mm

Compound	Diameter of inhibition zone
CCOC(=O)c1cn(CC)c2cc(N3CCCCC3)c(F)cc2c1=O	0 mm
CCCc1cc(O)c2c3c(c(=O)oc2c1)CN(C)CC3	0 mm
Cc1cc(NC(=O)C2c3ccccc3C(=O)N(CC(C)C)C2c2cccs2)no1 (centres undefined)	0 mm
Cl.Oc1ccccc1CNCC12CC3CC(CC(C3)C1)C2	0 mm
CNCCCNc1ccnc2cc(Cl)ccc12	0 mm
COc1ccccc1CNC(=O)CCn1c(=O)[nH]c2ccsc2c1=O	0 mm
COc1ccc(Br)cc1C1Nc2ccc3ccccc3c2C2=C1C(=O)CC(c1ccccc1)C2 (centres undefined)	0 mm
Cc1cc(C=C2SC(=Nc3ccccc3)N(C3CCCC3)C2=O)c(C)n1-c1ccc(Cl)cc1	0 mm
CC1CCN(Cc2ccc(NC(=O)c3cc4ccc5cccnc5c4[nH]3)cc2)CC1	0 mm
CCOc1ccc(-c2nonc2NC(=O)c2cccc(C)c2)cc1OCC	0 mm
CCc1ccc(Nc2cc(C)c3ccc(O)cc3n2)cc1.Cl	0 mm
COc1ccc2c(=O)cc(C(Cl)(Cl)Cl)oc2c1	0 mm
CSc1ccccc1C(=O)Nc1nc(-c2ccccn2)cs1	3 mm
COc1ccc(-c2nc3cc(Cc4ccc5[nH]c(-c6ccc(OC)cc6)nc5c4)ccc3[nH]2)cc1	0 mm
CCOC(=O)c1ccc2[nH]c(-c3ccccc3)cc(=O)c2c1	0 mm
Cc1cc(Nc2ccc(Cl)cc2)n2nc(C(F)(F)F)nc2n1	0 mm
COc1ccc(C(C)=O)cc1N1C(=O)C2C(C1=O)C1(c3ccccc3)C(=O)C2(c2ccccc2)C(c2ccc(C)cc2)=C1c1ccc(C)cc1 (centres undefined)	0 mm
CCCCCCOC(=O)C1=C(C)NC(=O)NC1c1ccccc1F (centres undefined)	0 mm
Cc1ccc(N2C3c4ccccc4N(S(=O)(=O)c4ccc(C)cc4)C2c2ccccc2N3S(=O)(=O)c2ccc(C)cc2)cc1	0 mm
CCCc1c(CC)c(=N)c2ccccc2n1C	0 mm
Cc1ccc(Nc2nc(NCCO)c3ccccc3n2)cc1C	0 mm
CCOC(=O)c1cnc2c(C)cc(C)cc2c1Nc1ccc(OC)c(OC)c1	0 mm
COc1ccc(NC(=O)C2c3ccccc3C(=O)N(CC(C)C)C2c2cccs2)cc1 (centres undefined)	0 mm
c1ccc(Cn2c(N=Nc3c(Nc4ccccc4)ccc4ccccc34)nc3ccccc32)cc1	1 mm
CN(C)c1ccc(C(O)(c2ccc(N(C)C)cc2)c2ccc(N(C)C)cc2)cc1 [METHYLROSANILINE]	0 mm
